# According to patent US8173133B2, “Acyl pseudodipeptides which carry a functionalized auxiliary arm” (OM Pharma, priority 1999, dated 2012):
# Assays:
# [1] = test system: murine predendritic cells (CD-DM); assay: maturation of murine predendritic cells into dendritic cells (flow cytometry of surface markers); assay type: cell-based, C57BI/6 mice; conditions: for CD40 MFI: 48 hour
# Experimental: The marrow was aspirated from the femur and tibia bones of (C57BI/6, 6 to 8 week-old) mice. The marrow suspension was screened through a 70 μm cell sieve in order to obtain a single cell suspension. Marrow cells were resuspended into Isocove's modified Dulbecco medium (IMDM) supplemented with 10% of heat inactivated foetal calf serum (iFCS) and antibiotics. Cells were incubated overnight at 37° C., under CO2 and a moisture saturated atmosphere, inside 6-well microtiter plates. Next day (day 0), non adherent cells were collected and washed. Viable cells were counted by trypan blue dye exclusion test. Cell concentration was adjusted to 2×10^5 cells/ml in IMDM containing […] and 20 ng/ml of murine recombinant IL-4 (rmIL-4) and plates were further incubated. On the 3rd day, there were added freshly prepared mGM-CSF and rmIL-4 at a concentration of 10 ng/ml. On the 6th day, non adherent cells were collected, washed and counted by trypan blue dye exclusion. Cell concentration was adjusted to 2×10^5 cells/ml in IMDM containing 10 ng/ml of rmGM-CSF and rmIL-4, and plates were further incubated. On the 8th day, non adherent cells made up of both mature and immature dendritic cells (CD-DM) were collected and used in product co-incubation experiments.
# After a 48 hour incubation period, cells were collected and stored for flow cytometry analysis Flow cytometry analysis CD-DM were washed with PBS containing 2% iFCS and 0.01% sodium azide (FACS buffer). Then, cells were incubated on ice for 30 minutes with optimal concentrations of anti-CD86 antibody; anti-CD40 antibody, FITC conjugated anti-MCHII antibody, and […]. Then, cells were washed 3 times. Labeling of anti-CD86 and anti-CD40 antibodies was performed by incubating cells on ice for 30 minutes with peroxidase-conjugated donkey anti-rat immunoglobulins. Following incubation, cells were washed and resuspended into FACS medium. Fluorescence was measured with the aid of FACScan® flow cytometry. 15000 pulse events were analyzed per sample. Cells which had been incubated with the conjugate alone were used as a negative control.
# Leishmania LmCPb antigen = assay: Leishmania LmCPb immunization: IL-4 and γ IFN in lymph node cell supernatant (ELISA); assay type: in vivo, CBA mice; conditions: lymph node cell cultures challenged with the parasite antigen
# Experimental: CBA mice were administered through the tail a single subcutaneous injection (100 μl) of Leishmania parasite LmCPb antigen (3 μg per mouse)±adjuvant. […] Eleven days after injection, inguinal and periaortic lymph node cells (2 groups of 3 mice each) were cultured in triplicate in presence of purified LmCPb antigen or whole extract of the parasite (amastigote). At day 4, a supernatant sample is withdrawn and stored at −20° C. for IL-4 and γ IFN assay. Finally, tritiated thymidine (^3H-TdR) is added to the cultures to measure the proliferation reaction.
# Cytokine assay is carried out by a sandwich ELISA assay (OptEIA®) kits for γ IFN and IL-4, BD, PharMingen, Basel, Switzerland) and the proliferation response is determined by measuring thymidine take-up (^3H-TdR). ^3H-TdR take-up given in cpm as the arithmetic mean value±standard deviation ([…] of 3 mice each) and IL-4 concentration given in pg/ml are individually reported for each pool of 3 mice as the arithmetic mean of two measurements (cytokine assay).
# An LmCPb stock solution is prepared at a concentration of 150 μg/ml in PBS
# Adjuvants: The stock solution of OM-294-MP-AC is prepared at a concentration of 0.9 mg/ml in water for injection, with addition of 0.1% triethanolamine.
# Antigen-adjuvant mixture: Adjuvant preparation (4 volumes), which had been adjusted to an adequate final concentration in sterile PBS, is mixed just prior to injection with the antigen stock solution (1 volume).
# HIV-1 IIIB = assay: anti-HIV activity in MT-4 cells (MTT), HIV-1 IIIB; assay type: cell-based
# Experimental: T MT-4 lymphocyte cell line which had been transformed into a continuous cell line by an HTLV infection, a virus associated with one form of leukemia, was used to test the antiviral activity (anti-HIV) of AZT- and d4T-conjugated compounds according to the invention, respectively. A characteristic feature of such cells is lack of survival following an HIV infection. The test is based on protection provided by the product (like AZT) against this viral destructive effect. Products were tested in serially diluted solutions in a 96-well plate. In the upper portion of the microplate, products were tested by incubation at various concentrations with cells and virus (in triplicate), so as to determine the concentration of product which affords cell protection against the viral destructive effect. IC50 of the product is taken as the concentration where a 50% loss of viable cell count is recorded. Viable cell count was done with MTT, a yellow tetrazolium compound which undergoes enzymatic reduction (at the mitochondrial level in viable cells) into a purple colored formazan compound. Wells containing viable cells are purple in colour, whereas dead cells give a persistent yellow color. Measurement of optical density (O.D.) allows this effect to be quantified.
Compound,C80 % cells ([1]; 0.1 μg/ml),C80 MFI ([1]; 0.1 μg/ml),CD40 % cells ([1]; 0.1 μg/ml),CD86 % cells ([1]; 0.1 μg/ml),CD86 MFI ([1]; 0.1 μg/ml),MHCII % cells ([1]; 0.1 μg/ml),MHCII MFI ([1]; 0.1 μg/ml),CD40 MFI ([1]; 0.1 μg/ml),C80 % cells ([1]; 1 μg/ml),C80 MFI ([1]; 1 μg/ml),CD40 % cells ([1]; 1 μg/ml),CD86 % cells ([1]; 1 μg/ml),CD86 MFI ([1]; 1 μg/ml),MHCII % cells ([1]; 1 μg/ml),MHCII MFI ([1]; 1 μg/ml),CD40 MFI ([1]; 1 μg/ml),C80 % cells ([1]; 10 μg/ml),C80 MFI ([1]; 10 μg/ml),CD40 % cells ([1]; 10 μg/ml),CD86 % cells ([1]; 10 μg/ml),further results
"CCCCCCCCCCCC(=O)O[C@H](CCCCCCCCCCC)CC(=O)N[C@H](CC(=O)O)C(=O)NCCC[C@H](COC(=O)CCCCCN)NC(=O)C[C@H](O)CCCCCCCCCCC [OM-197-MC-AC, N—[(R)-3-dodecanoyloxytetradecanoyl]-D-aspartic acid, α-N-{(4R)-5-(6-aminohexanoyloxy)-4-[(R)-3-hydroxytetradecanoylamino]pentyl}amide]",41%,66,34%,37%,3504,38%,1597,446,47%,73,48%,45%,3791,45%,1607,493,53%,97,55%,52%,CD86 MFI ([1]; 10 μg/ml): 4162; MHCII % cells ([1]; 10 μg/ml): 49%; MHCII MFI ([1]; 10 μg/ml): 1622; CD40 MFI ([1]; 10 μg/ml): 605; γ IFN production (Leishmania LmCPb antigen): < 100 pg/mL
CCCCCCCCCCCC(=O)O[C@H](CCCCCCCCCCC)CC(=O)N[C@H](CC(=O)O)C(=O)NCCC[C@H](COC(=O)CCCCCNC(=O)CCC(=O)OC[C@H]1O[C@@H](n2cc(C)c(=O)[nH]c2=O)C[C@@H]1N=[N+]=[N-])NC(=O)C[C@H](O)CCCCCCCCCCC [OM-197-MC-AC-Succ-AZT],,,,,,,,,,,,,,,,,,,,,IC50 (HIV-1 IIIB): 51.9 nM
CCCCCCCCCCCC(=O)O[C@H](CCCCCCCCCCC)CC(=O)N[C@H](CC(=O)O)C(=O)NCCC[C@H](COC(=O)CCCCCNC(=O)CCC(=O)OC[C@@H]1C=C[C@H](n2cc(C)c(=O)[nH]c2=O)O1)NC(=O)C[C@H](O)CCCCCCCCCCC [OM-197-MC-AC-Succ-d4T],,,,,,,,,,,,,,,,,,,,,IC50 (HIV-1 IIIB): 963 nM
"CCCCCCCCCCCC(=O)O[C@H](CCCCCCCCCCC)CC(=O)N[C@H](CC(=O)O)C(=O)NCCC[C@H](COC(=O)CCCCC(O)CO)NC(=O)C[C@H](O)CCCCCCCCCCC (stereo partly drawn) [OM-197-MC-FV5, N—[(R)-3-dodecanoyloxytetradecanoylamino]-D-aspartic acid, α-N-{(4R)-5-hydroxy-4-[(R)-3-hydroxytetra-decanoylamino]-pentyl}amide 5-O-(6,7-dihydroxyheptanoate)]",42%,66,33%,37%,3437,40%,1689,442,45%,84,44%,43%,3888,43%,1691,517,48%,97,54%,51%,CD86 MFI ([1]; 10 μg/ml): 4097; MHCII % cells ([1]; 10 μg/ml): 48%; MHCII MFI ([1]; 10 μg/ml): 1681; CD40 MFI ([1]; 10 μg/ml): 630
